Tests used:
P-gp = P-gp (Homo sapiens, UniProt P08183); test: Rho123 efflux assay in A549 taxol-resistant lung cancer cells (flow cytometry)
Protocol: A549 taxol-resistant lung cancer cells were seeded in 6 well-plates at a final concentration of 2×10^5 cells per well and cultured for 24 h at 37° C. in an atmosphere containing 5% CO2. […] Subsequently, 5 mg/mL Rho123 was added to each well and the wells were incubated for another 1 h at 37° C. At the end of the incubation, the accumulation of Rho123 was stopped by washing the cells five times with ice-cold PBS. After cell centrifugation, cell pellets were resuspended in 400 μL PBS. […] All data acquisition and analyses were performed with CellQuest (BD Biosciences, San Jose, Calif., USA) in triplicate in three independent experiments, and the results were shown as the mean of fluorescence intensity.
A549 taxol-resistant lung cancer cells were seeded in 6 well-plates at a final concentration of 2×10^5 cells per well and cultured for 24 h at 37° C. in an atmosphere containing 5% CO2. […] All data acquisition and analyses were performed with CellQuest (BD Biosciences, San Jose, Calif., USA) in triplicate in three independent experiments, and the results were shown as the mean of fluorescence intensity.

HEK293 kidney cells = test: MTT cytotoxicity assay, HEK293; assay type: cell-based; conditions: Homo sapiens, HEK293, 72 h, 3 days
Protocol: (§1) Cell cultures and cytotoxicity assays have been used. Celastrol was dissolved in DMSO at a final concentration of 100 mmol/L and stored at −20° C. Cytotoxicity was assessed using the 3-(4,5-dimethylthiazol-2-yl)-2,5-diphenyltetrazolium bromide assay. 4000 cells from HEK293 and HEK293/ABCB5 kidney cancer cells or MDA-MB-231 pcDNA and MDA-MB-231/BCRP breast cancer cells were seeded on 96-well plates per well. After overnight pre-incubation, the cells were exposed to different concentrations of celastrol (0.1-10 μmol/L) for 3 days. Subsequently, 10 μL of MTT reagents were added to each well and incubated at 37° C. for 4 hours followed by the addition of 100 μL solubilization buffer (10% SDS in 0.01 mol/L HCl) and overnight incubation. Absorbance at 585 nm was determined from each well the next day. The percentage of cell viability was calculated using the following formula: Cell viability (%)=Cells number treated/Cells number DMSO control×100. Data were obtained from three independent experiments.

[1] = test system: MDA-MB-231 pcDNA breast cancer cells; test: MTT cytotoxicity assay, MDA-MB-231 pcDNA; assay type: cell-based; conditions: Homo sapiens, MDA-MB-231, 72 h, 3 days
Protocol: as §1

[2] = test system: MDA-MB-231/BCRP breast cancer cells; test: MTT cytotoxicity assay, MDA-MB-231/BCRP; assay type: cell-based
Protocol: as §1

[3] = test system: A2780 (Ovary) taxol resistant cancer cells; test: MTT cytotoxicity assay, A2780 taxol resistant; assay type: cell-based, human; conditions: for Resistant Factor: A2780 taxol resistant versus taxol sensitive
Protocol: as §1, with “from A549 (lung), A2780 (ovary), HCT-8 (colon)” for “from HEK293”, “and MCF-7 (breast)” for “and HEK293/ABCB5 kidney cancer cells or MDA-MB-231 pcDNA and MDA-MB-231/BCRP breast”, “celastrol (0.039-100” for “celastrol (0.1-10”, “μmol/L) or taxol” for “μmol/L)”, “reagents was” for “reagents were”

[4] = test system: HCT-8 (Colon) taxol resistant cancer cells; test: MTT cytotoxicity assay, HCT-8 taxol resistant; assay type: cell-based, human
Protocol: as §1, with “from A549 (lung), A2780 (ovary), HCT-8 (colon)” for “from HEK293”, “and MCF-7 (breast)” for “and HEK293/ABCB5 kidney cancer cells or MDA-MB-231 pcDNA and MDA-MB-231/BCRP breast”, “celastrol (0.039-100” for “celastrol (0.1-10”, “μmol/L) or taxol” for “μmol/L)”, “reagents was” for “reagents were”

[5] = test system: MCF-7 (Breast) taxol resistant cancer cells; test: MTT cytotoxicity assay, MCF-7 taxol resistant; assay type: cell-based, human
Protocol: as §1, with “from A549 (lung), A2780 (ovary), HCT-8 (colon)” for “from HEK293”, “and MCF-7 (breast)” for “and HEK293/ABCB5 kidney cancer cells or MDA-MB-231 pcDNA and MDA-MB-231/BCRP breast”, “celastrol (0.039-100” for “celastrol (0.1-10”, “μmol/L) or taxol” for “μmol/L)”, “reagents was” for “reagents were”

[6] = test system: MCF-7 (Breast) doxorubicin sensitive cancer cells; test: MTT cytotoxicity assay, MCF-7 doxorubicin sensitive; assay type: cell-based; conditions: Homo sapiens, MCF7, 72 h, read-out: IC50 MCF-7 (Breast) (Doxorubicin sensitive)
Protocol: as §1, with “MCF-7 doxorubicin sensitive/resistant breast” for “HEK293 and HEK293/ABCB5 kidney”, “CEM doxorubicin sensitive/resistant leukemia” for “MDA-MB-231 pcDNA and MDA-MB-231/BCRP breast cancer”, “(0.039-100” for “(0.1-10”, “μmol/L) or doxorubicin” for “μmol/L)”

[7] = test system: MCF-7 (Breast) doxorubicin resistant cancer cells; test: MTT cytotoxicity assay, MCF-7 doxorubicin resistant; assay type: cell-based, human
Protocol: as §1, with “MCF-7 doxorubicin sensitive/resistant breast” for “HEK293 and HEK293/ABCB5 kidney”, “CEM doxorubicin sensitive/resistant leukemia” for “MDA-MB-231 pcDNA and MDA-MB-231/BCRP breast cancer”, “(0.039-100” for “(0.1-10”, “μmol/L) or doxorubicin” for “μmol/L)”

[8] = test system: A2780 (Ovary) cisplatin resistant cancer cells; test: MTT cytotoxicity assay, A2780 cisplatin resistant; assay type: cell-based, human
Protocol: as §1, with “A2780 cisplatin sensitive/resistant ovarian” for “HEK293 and HEK293/ABCB5 kidney”, “SGC-7901 cisplatin sensitive/resistant gastric” for “MDA-MB-231 pcDNA and MDA-MB-231/BCRP breast”, “(0.039-100” for “(0.1-10”, “μmol/L) or cisplatin” for “μmol/L)”

Chain of P-gp (P08183 whole entry): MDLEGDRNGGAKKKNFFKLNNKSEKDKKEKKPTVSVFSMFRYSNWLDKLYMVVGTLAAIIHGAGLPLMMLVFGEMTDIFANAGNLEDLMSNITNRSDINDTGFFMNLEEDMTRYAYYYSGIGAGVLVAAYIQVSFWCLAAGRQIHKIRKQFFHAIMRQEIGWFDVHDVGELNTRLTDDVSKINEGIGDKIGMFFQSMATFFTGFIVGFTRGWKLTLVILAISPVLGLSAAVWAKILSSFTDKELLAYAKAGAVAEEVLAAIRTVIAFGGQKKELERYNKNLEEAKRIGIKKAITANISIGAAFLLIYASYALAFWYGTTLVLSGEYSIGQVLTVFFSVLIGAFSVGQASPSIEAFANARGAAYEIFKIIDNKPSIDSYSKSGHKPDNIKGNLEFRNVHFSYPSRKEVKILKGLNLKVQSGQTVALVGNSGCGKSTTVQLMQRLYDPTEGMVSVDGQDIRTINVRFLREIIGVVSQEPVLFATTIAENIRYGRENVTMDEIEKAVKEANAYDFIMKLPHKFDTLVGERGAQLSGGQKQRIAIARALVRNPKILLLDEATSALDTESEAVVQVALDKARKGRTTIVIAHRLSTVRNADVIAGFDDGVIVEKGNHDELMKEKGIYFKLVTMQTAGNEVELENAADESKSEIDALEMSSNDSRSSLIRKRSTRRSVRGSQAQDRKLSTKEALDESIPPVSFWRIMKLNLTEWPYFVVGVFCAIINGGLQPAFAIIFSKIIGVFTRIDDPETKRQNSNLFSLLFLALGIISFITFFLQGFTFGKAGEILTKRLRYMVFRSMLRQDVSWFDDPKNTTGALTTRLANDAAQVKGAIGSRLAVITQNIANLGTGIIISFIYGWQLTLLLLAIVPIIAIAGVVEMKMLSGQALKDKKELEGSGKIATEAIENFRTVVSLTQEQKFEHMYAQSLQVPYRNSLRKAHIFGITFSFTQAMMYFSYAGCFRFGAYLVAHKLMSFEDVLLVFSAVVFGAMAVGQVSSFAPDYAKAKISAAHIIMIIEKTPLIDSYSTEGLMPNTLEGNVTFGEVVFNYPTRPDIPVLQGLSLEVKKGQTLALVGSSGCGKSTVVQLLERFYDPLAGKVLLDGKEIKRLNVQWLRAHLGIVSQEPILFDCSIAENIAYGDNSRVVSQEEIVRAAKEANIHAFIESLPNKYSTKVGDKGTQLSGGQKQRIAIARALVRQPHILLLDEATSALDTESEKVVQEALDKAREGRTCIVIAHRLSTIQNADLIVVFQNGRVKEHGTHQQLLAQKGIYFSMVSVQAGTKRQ

SMILES: CC1=C(O)C(=O)C=C2C1=CC=C1[C@@]2(C)CC[C@@]2(C)[C@@H]3C[C@](C)(C(=O)O)CC[C@]3(C)CC[C@]12C [Celastrol, celastrol]
- P-gp activity / Rho123 accumulation (Example 2) (P-gp): inhibited the P-gp activity dose-dependently
- P-gp activity / Rho123 accumulation (Example 9) (P-gp): inhibited the P-gp activity dose-dependently
- IC50 (HEK293 kidney cells): 3080 nM
- IC50 [1]: 4830 nM
- Resistant Factor ([2]; IC50 MDA-MB-231/BCRP divided by IC50 MDA-MB-231 pcDNA): 1.28
- IC50 ([2]; MDA-MB-231/BCRP, 72 h, MTT, 3 days): 6190 nM
- Resistant Factor [3]: 0.60
- Resistant Factor ([3]; listed as celastrol): 0.6
- IC50 ([3]; Homo sapiens, A2780, 72 h, read-out: IC50 A2780 (Ovary) (Taxol resistant)): 540 nM
- Resistant Factor ([4]; HCT-8 taxol resistant versus taxol sensitive): 0.59
- IC50 ([4]; Homo sapiens, HCT-8, 72 h, read-out: IC50 HCT-8 (Colon) (Taxol resistant)): 553 nM
- IC50 ([5]; Homo sapiens, MCF7, 72 h, read-out: IC50 MCF-7 (Breast) (Taxol resistant)): 730 nM
- Resistant Factor ([5]; MCF-7 taxol resistant versus taxol sensitive): 0.65
- IC50 [6]: 1130 nM
- IC50 ([7]; Homo sapiens, MCF7, 72 h, read-out: IC50 MCF-7 (Breast) (Doxorubicin resistant)): 950 nM
- Resistant Factor ([7]; MCF-7 doxorubicin resistant versus doxorubicin sensitive): 0.84
- Resistant Factor ([8]; A2780 cisplatin resistant versus cisplatin sensitive): 1.03
- IC50 ([8]; Homo sapiens, A2780, 72 h, read-out: IC50 A2780 (Ovary) (Cisplatin resistant)): 543 nM

Reference: patent US10322097B2, “Treatment of subjects with multidrug-resistant cancer” (priority 2015, dated 2019)
